Test results from US4698352A, “4-oxo-1,4-dihydronicotinic acid derivatives, salts thereof, and antibacterial agents containing the same” (Toyama Chemical Co., Ltd., priority 1982, dated 1987).
Values after ≈ are worked out from the molar mass of the structure shown. Where two headings read alike, the source gives them in different places.

How the values were obtained:
Experiment in all cases: Antibacterial activity (MIC), agar dilution
Type in all cases: cell-based
[1] = test system: Pro. vulgaris GN76**
From the text: (§1) The amount of bacteria inoculated was 10^4 cells per plate (10^6 cells per ml).
(§2) ** Cephalospolinase-producing bacteria

[2] = test system: E. coli GN5482**; conditions: E. coli GN5482, cephalospolinase-producing, 10^6 cells per ml
From the text: as §1, §2

[3] = test system: Ps. aeruginosa GN918**; conditions: Pseudomonas aeruginosa, Ps. aeruginosa GN918, cephalospolinase-producing, 10^6 cells per ml
From the text: as §1, §2

[4] = test system: Ps. aeruginosa IFO3445; conditions: Ps. aeruginosa IFO3445, 10^6 cells per ml, 37° C., 20 hours
From the text: as §1

[5] = test system: Aci. antitratus A-6; conditions: Aci. antitratus A-6, 10^6 cells per ml, 37° C., 20 hours
From the text: as §1

[6] = test system: Kl. pneumoniae Y-41; conditions: 37° C., 20 hours
From the text: as §1

[7] = test system: Pro. morganii T-216; conditions: Morganella morganii, 37° C.
From the text: as §1

[8] = test system: E. coli TK-111; conditions: E. coli TK-111, 10^6 cells per ml, 37° C., 20 hours
From the text: as §1

[9] = test system: St. aureus FDA209P; conditions: St. aureus FDA209P, 10^6 cells per ml, 37° C., 20 hours
From the text: as §1

[10] = test system: Pro. mirabilis T-111; conditions: 37° C.
From the text: as §1

[11] = test system: E. coli NIHJ JC-2
From the text: as §1

[12] = test system: Ent. cloacae IID977
From the text: as §1

[13] = test system: Pro. vulgaris GN3027; conditions: Pro. vulgaris GN3027, 10^6 cells per ml, 37° C., 20 hours
From the text: as §1

[14] = test system: Kl. pneumoniae Y-50; conditions: 10^6 cells per ml, 37° C.
From the text: as §1

[15] = test system: Ps. aeruginosa S-68
From the text: as §1

[16] = test system: Kl. pneumoniae Y-4*; conditions: Kl. pneumoniae Y-4, penicillinase-producing, 10^6 cells per ml
From the text: as §1
(§3) * Penicillinase-producing bacteria

[17] = test system: E. coli TK-3*
From the text: as §1, §3

[18] = test system: St. aureus F-137*; conditions: St. aureus F-137, penicillinase-producing, 10^6 cells per ml
From the text: as §1, §3

[19] = test system: Ps. aeruginosa GN3379*; conditions: Pseudomonas aeruginosa, Ps. aeruginosa GN3379, penicillinase-producing, 10^6 cells per ml
From the text: as §1, §3

[20] = Proteus vulgaris, 20 h, Pro. vulgaris GN76, cephalospolinase-producing, 10^6 cells per ml, read-out: MIC
[21] = Escherichia coli, 20 h, read-out: MIC
[22] = Pseudomonas aeruginosa, read-out: MIC
[23] = Klebsiella pneumoniae, Y41, 10^6 cells per ml, read-out: MIC
[24] = T216, 10^6 cells per ml, 20 hours, read-out: MIC
[25] = Escherichia coli, TK111, 20 h, read-out: MIC
[26] = Staphylococcus aureus, FDA209P, 20 h, read-out: MIC
[27] = Proteus mirabilis, T111, 10^6 cells per ml, 20 hours, read-out: MIC
[28] = Enterobacter cloacae, IID977, 20 h, Ent. cloacae IID977, 10^6 cells per ml, 37° C., 20 hours, read-out: MIC
[29] = Proteus vulgaris, GN3027, 20 h, read-out: MIC
[30] = Klebsiella pneumoniae, Y50, 20 h, read-out: MIC
[31] = Pseudomonas aeruginosa, S68, Ps. aeruginosa S-68, 10^6 cells per ml, 37° C., 20 hours, read-out: MIC
[32] = Klebsiella pneumoniae, 20 h, read-out: MIC
[33] = Escherichia coli, 20 h, E. coli TK-3, penicillinase-producing, 10^6 cells per ml, read-out: MIC
[34] = Staphylococcus aureus, 20 h, read-out: MIC
[35] = Escherichia coli, NIHJJC2, 20 h, E. coli NIHJ JC-2, 10^6 cells per ml, 37° C., 20 hours, read-out: MIC
[36] = Proteus mirabilis, T111, 20 h, 10^6 cells per ml
[37] = Pseudomonas aeruginosa, S68, 20 h

Row | SMILES | MIC [1, 20] | MIC [2, 21] | MIC ([3]; 20 h, read-out: MIC) | MIC [4, 22] | MIC ([5]; 20 h, read-out: MIC) | MIC [6, 23] | MIC [7, 24] | MIC [8, 25] | MIC [9, 26] | MIC [10, 27] | MIC [12, 28] | MIC [13, 29] | MIC [14, 30] | MIC [15, 31] | MIC [16, 32] | MIC [17, 33] | MIC [18, 34] | MIC ([19]; 20 h, read-out: MIC) | MIC ([19]; GN3379, 20 h) | MIC [11, 35] | also measured
1 | CC(=O)Oc1ccc(-n2cc(C(=O)OCC(O)CO)c(=O)cc2-c2ccc(N(C)C)cc2)cc1 (stereo not drawn) | 6.25 µg/mL (≈ 13.4 µM) | 0.1 µg/mL (≈ 0.214 µM) | 12.5 µg/mL (≈ 26.8 µM) | 50 µg/mL (≈ 107 µM) | 1.56 µg/mL (≈ 3.34 µM) | 25 µg/mL (≈ 53.6 µM) | 12.5 µg/mL (≈ 26.8 µM) | 0.78 µg/mL (≈ 1.67 µM) | 1.56 µg/mL (≈ 3.34 µM) | 25 µg/mL (≈ 53.6 µM) | 6.25 µg/mL (≈ 13.4 µM) | 0.78 µg/mL (≈ 1.67 µM) | 3.13 µg/mL (≈ 6.71 µM) | 25 µg/mL (≈ 53.6 µM) | 25 µg/mL (≈ 53.6 µM) | 6.25 µg/mL (≈ 13.4 µM) | 1.56 µg/mL (≈ 3.34 µM) | 50 µg/mL (≈ 107 µM) |  |  | MIC ([11]; Escherichia coli, NIHJJC2, 20 h): 3.13 µg/mL (≈ 6.71 µM)
2 | CC(=O)Oc1ccc(-n2cc(C(=O)OCCN(C)C)c(=O)cc2-c2ccc(N(C)C)cc2)cc1 [drawing 67] |  |  | 1.56 µg/mL (≈ 3.37 µM) |  |  |  | 1.56 µg/mL (≈ 3.37 µM) |  |  |  |  |  |  |  |  |  |  |  | 6.25 µg/mL (≈ 13.5 µM) |  | MIC ([1]; Pro. vulgaris GN76, cephalospolinase-producing, 10^6 cells per ml): 1.56 µg/mL (≈ 3.37 µM); MIC [2]: ≤ 0.05 µg/mL; MIC [4]: 12.5 µg/mL (≈ 27 µM); MIC [5]: 0.2 µg/mL (≈ 0.431 µM); MIC ([6]; 10^6 cells per ml): 3.13 µg/mL (≈ 6.75 µM); MIC [8]: 0.1 µg/mL (≈ 0.216 µM); MIC [9]: 0.2 µg/mL (≈ 0.431 µM); MIC ([10]; 10^6 cells per ml, 20 hours): 3.13 µg/mL (≈ 6.75 µM); MIC ([11]; E. coli NIHJ JC-2, 10^6 cells per ml, 37° C., 20 hours): 0.2 µg/mL (≈ 0.431 µM); MIC ([12]; Ent. cloacae IID977, 10^6 cells per ml, 37° C., 20 hours): 0.78 µg/mL (≈ 1.68 µM); MIC [13]: 0.2 µg/mL (≈ 0.431 µM); MIC ([14]; 20 hours): 0.39 µg/mL (≈ 0.841 µM); MIC ([15]; Ps. aeruginosa S-68, 10^6 cells per ml, 37° C., 20 hours): 6.25 µg/mL (≈ 13.5 µM); MIC [16]: 3.13 µg/mL (≈ 6.75 µM); MIC ([17]; E. coli TK-3, penicillinase-producing, 10^6 cells per ml): 0.78 µg/mL (≈ 1.68 µM); MIC [18]: 0.2 µg/mL (≈ 0.431 µM)
3 | Cn1ccc2cc(-c3cc(=O)c(C(=O)O)cn3-c3ccc(O)cc3F)ccc21 | 0.39 µg/mL (≈ 1.03 µM) | ≤ 0.05 µg/mL | 0.78 µg/mL (≈ 2.06 µM) | 1.56 µg/mL (≈ 4.12 µM) | ≤ 0.05 µg/mL | 0.39 µg/mL (≈ 1.03 µM) | 0.39 µg/mL (≈ 1.03 µM) | ≤ 0.05 µg/mL | 0.05 µg/mL (≈ 0.132 µM) | 0.39 µg/mL (≈ 1.03 µM) | 0.39 µg/mL (≈ 1.03 µM) | ≤ 0.05 µg/mL | 0.2 µg/mL (≈ 0.529 µM) | 1.56 µg/mL (≈ 4.12 µM) | 0.78 µg/mL (≈ 2.06 µM) | 0.2 µg/mL (≈ 0.529 µM) | ≤ 0.05 µg/mL | 3.13 µg/mL (≈ 8.27 µM) |  | ≤ 0.05 µg/mL | 
4 | CN1CCCc2cc(-c3cc(=O)c(C(=O)O)cn3-c3ccc(O)cc3)ccc21 |  | ≤ 0.05 µg/mL |  | 12.5 µg/mL (≈ 33.2 µM) | 0.39 µg/mL (≈ 1.04 µM) | 3.13 µg/mL (≈ 8.32 µM) |  | 0.2 µg/mL (≈ 0.531 µM) | 0.39 µg/mL (≈ 1.04 µM) |  |  | 0.78 µg/mL (≈ 2.07 µM) | 1.56 µg/mL (≈ 4.14 µM) |  | 6.25 µg/mL (≈ 16.6 µM) |  | 0.2 µg/mL (≈ 0.531 µM) | 12.5 µg/mL (≈ 33.2 µM) |  | 0.39 µg/mL (≈ 1.04 µM) | MIC ([1]; Proteus vulgaris, GN76, 20 h): 1.56 µg/mL (≈ 4.14 µM); MIC ([3]; GN918, 20 h): 3.13 µg/mL (≈ 8.32 µM); MIC ([7]; T216, 20 h, 10^6 cells per ml): 3.13 µg/mL (≈ 8.32 µM); MIC [10, 36]: 3.13 µg/mL (≈ 8.32 µM); MIC ([12]; Enterobacter cloacae, IID977, 20 h): 1.56 µg/mL (≈ 4.14 µM); MIC [15, 37]: 6.25 µg/mL (≈ 16.6 µM); MIC ([17]; Escherichia coli, 20 h): 1.56 µg/mL (≈ 4.14 µM)
5 | O=C(O)c1cn(-c2ccc(O)cc2)c(-c2cc3ccccc3s2)cc1=O | 0.2 µg/mL (≈ 0.55 µM) | ≤ 0.05 µg/mL | 3.13 µg/mL (≈ 8.61 µM) | 3.13 µg/mL (≈ 8.61 µM) | 0.2 µg/mL (≈ 0.55 µM) | 0.78 µg/mL (≈ 2.15 µM) | 0.39 µg/mL (≈ 1.07 µM) | ≤ 0.05 µg/mL | ≤ 0.05 µg/mL | 0.78 µg/mL (≈ 2.15 µM) | 0.39 µg/mL (≈ 1.07 µM) | ≤ 0.05 µg/mL | 0.2 µg/mL (≈ 0.55 µM) | 0.78 µg/mL (≈ 2.15 µM) | 0.78 µg/mL (≈ 2.15 µM) | 0.39 µg/mL (≈ 1.07 µM) | ≤ 0.05 µg/mL | 3.13 µg/mL (≈ 8.61 µM) |  | 0.2 µg/mL (≈ 0.55 µM) | 
6 | O=C(O)c1cn(-c2ccc(O)cc2)c(-c2ccc(N3CCCC3)cc2)cc1=O | 0.78 µg/mL (≈ 2.07 µM) | ≤ 0.05 µg/mL |  | 6.25 µg/mL (≈ 16.6 µM) | ≤ 0.05 µg/mL | 1.56 µg/mL (≈ 4.14 µM) |  | 0.2 µg/mL (≈ 0.531 µM) | 0.2 µg/mL (≈ 0.531 µM) |  | 0.78 µg/mL (≈ 2.07 µM) | 0.2 µg/mL (≈ 0.531 µM) | 0.78 µg/mL (≈ 2.07 µM) |  | 3.13 µg/mL (≈ 8.32 µM) | 0.78 µg/mL (≈ 2.07 µM) | 0.1 µg/mL (≈ 0.266 µM) |  | 3.13 µg/mL (≈ 8.32 µM) | 0.39 µg/mL (≈ 1.04 µM) | MIC ([3]; GN918, 20 h): 1.56 µg/mL (≈ 4.14 µM); MIC ([7]; T216, 20 h, 10^6 cells per ml): 1.56 µg/mL (≈ 4.14 µM); MIC [10, 36]: 1.56 µg/mL (≈ 4.14 µM); MIC [15, 37]: 3.13 µg/mL (≈ 8.32 µM)
